Assay results: patent publication US20150010928A1, “MEANS AND METHODS FOR ASSESSING AN ENDOCRINE DISEASE OR DISORDER” (priority 2012, published 2015)
Marks after values point to notes of the source that are not given here. Blank lines part the entries; values can stand above or below the compound they belong to.

Tested on: female rats
Test: Plasma metabolite profiling (GC-MS, LC-MS, SPE-LC-MS) in female rats dosed once daily over 28 days (OECD 407)
Assay type: in vivo, rat
Design: key to TAG No 07 / Lysophosphatidylcholine (C17:0): ratio of treated group mean to untreated control group mean; key to 5-O-Methylsphingosine (d18:1) / Isopalmitic acid (C16:0) / Valine / Alanine / Ketoleucine / Serine / Lactate / Arginine: ratio of treated group mean to untreated control mean
Conditions: high dose
Procedure: Each dose group in the studies consisted of five rats per sex. Additional groups of each 5 male and female animals served as controls. […] All animals of the animal population were kept under the same constant temperature (20-24±3° C.) and the same constant humidity (30-70%). The animals of the animal population were fed ad libitum. The food to be used was essentially free of chemical or microbial contaminants. Drinking water was also offered ad libitum. Accordingly, the water was free of chemical and microbial contaminants as laid down in the European Drinking Water Directive 98/83/EG. The illumination period was 12 hours light followed by 12 hours darkness (12 hours light, from 6:00 to 18:00, and 12 hours darkness, from 18:00 to 6:00). […] The test substances (compounds) in the Tables 1 to 17 below were dosed and administered as described in the Table 18.
In the morning of day 7, 14, and 28, blood was taken from the retroorbital venous plexus from fasted anaesthetized animals. From each animal, 1 ml of blood was collected with EDTA as anticoagulant. The samples were centrifuged for generation of plasma. All plasma samples were covered with a N2 atmosphere and then stored at −80° C. until analysis.
For mass spectrometry-based metabolite profiling analyses plasma samples were extracted and a polar and a non-polar (lipid) fraction was obtained. For GC-MS analysis, the non-polar fraction was treated with methanol under acidic conditions to yield the fatty acid methyl esters. Both fractions were further derivatised with O-methyl-hydroxyamine hydrochloride and pyridine to convert Oxogroups to O-methyloximes and subsequently with a silylating agent before analysis. In LC-MS analysis, both fractions were reconstituted in appropriate solvent mixtures. HPLC was performed by gradient elution on reversed phase separation columns. Mass spectrometric detection which allows target and high sensitivity MRM (Multiple Reaction Monitoring) profiling in parallel to a full screen analysis was applied as described in WO2003073464.
Steroids and their metabolites were measured by online SPE-LC-MS (Solid phase extraction-LC-MS).
Following comprehensive analytical validation steps, the data for each analyte were normalized against data from pool samples. These samples were run in parallel through the whole process to account for process variability. The significance of treatment group values specific for sex, treatmentduration and metabolite was determined by comparing means of the treated groups to the means of the respective untreated control groups using WELCH-test and quantified with treatment ratios versus control and p-values.
The identification of the most important biomarkers per toxicity pattern was done by a ranking of the analytes in the tables below. Therefore the metabolic changes in reference treatments of a given pattern (shown in the table) were compared with changes of the same metabolite in other unrelated treatments. […] The maximum absolute value of the respective TVALUE was taken to indicate the most important metabolite for the pattern.

Structure (SMILES): CCC(=O)Oc1ccc(/C(CC)=C(\CC)c2ccc(OC(=O)CC)cc2)cc1 [Diethylstilboestrol dipropionate]
Cholesterol (f7, Table 14a): 0.48 * | Choline plasmalogen No 02 (f7, Table 14a): 0.7 * | Lignoceric acid (C24:0) (f7, Table 14a): 0.49 * | Sphingomyelin (d18:1, C16:0) (f7, Table 14a): 0.72 * | Sphingomyelin (d18:2, C16:0) (f7, Table 14a): 0.67 * | erythro-Sphingosine (d18:1) (f7, Table 14a): 0.38 * | Cholesterol (f14, Table 14a): 0.69 * | Choline plasmalogen No 02 (f14, Table 14a): 0.75 * | Lignoceric acid (C24:0) (f14, Table 14a): 0.6 * | Sphingomyelin (d18:1, C16:0) (f14, Table 14a): 0.59^ | Sphingomyelin (d18:2, C16:0) (f14, Table 14a): 0.71 * | erythro-Sphingosine (d18:1) (f14, Table 14a): 0.67 * | Cholesterol (f28, Table 14a): 0.58 * | Choline plasmalogen No 02 (f28, Table 14a): 0.67 * | Lignoceric acid (C24:0) (f28, Table 14a): 0.59 * | Sphingomyelin (d18:1, C16:0) (f28, Table 14a): 0.73 * | Sphingomyelin (d18:2, C16:0) (f28, Table 14a): 0.58 * | erythro-Sphingosine (d18:1) (f28, Table 14a): 0.46 *

3-O-Methylsphingosine (d18:1) (f7, Table 13b): 0.68 * | 5-O-Methylsphingosine (d18:1) (f7, Table 13b): 0.66 * | 16-Methylheptadecanoic acid (f7, Table 13b): 0.57 * | Arachidonic acid (C20:cis[5,8,11,14]4) (f7, Table 13b): 0.71 * | Ceramide (d18:1, C24:1) (f7, Table 13b): 0.57 * | Ceramide (d18:1,C24:0) (f7, Table 13b): 0.53 * | Cholesterol (f7, Table 13b): 0.72 * | Cholesterolester No 01 (f7, Table 13b): 0.84^ | Dodecanol (f7, Table 13b): 0.84 * | Elaidic acid (C18:trans[9]1) (f7, Table 13b): 0.66 * | Galactose, lipid fraction (f7, Table 13b): 0.79^ | Glycerol phosphate, lipid fraction (f7, Table 13b): 0.72 * | Heptadecanoic acid (C17:0) (f7, Table 13b): 0.85^ | Lignoceric acid (C24:0) (f7, Table 13b): 0.54 * | Lysophosphatidylcholine (C17:0) (f7, Table 13b): 0.83 * | Phosphate, lipid fraction (f7, Table 13b): 0.73 * | Phosphatidylcholine (C18:0, C20:3) (f7, Table 13b): 0.85 * | Phytosphingosine (f7, Table 13b): 0.64 * | Sphingomyelin (d18:1, C16:0) (f7, Table 13b): 0.94^ | Sphingomyelin (d18:1,C24:0) (f7, Table 13b): 0.84 * | Sphingomyelin (d18:2, C16:0) (f7, Table 13b): 0.67 * | Sphingomyelin (d18:2,C18:0) (f7, Table 13b): 0.89 * | Stearic acid (C18:0) (f7, Table 13b): 0.79 * | TAG No 07 (f7, Table 13b): 0.91^ | Tricosanoic acid (C23:0) (f7, Table 13b): 0.71 * | alpha-Tocopherol (f7, Table 13b): 0.82^ | beta-Sitosterol (f7, Table 13b): 0.46 * | erythro-Sphingosine (d18:1) (f7, Table 13b): 0.66 * | myo-Inositol, lipid fraction (f7, Table 13b): 0.87 * | myo-Inositol-2-phosphate, lipid fraction (f7, Table 13b): 0.61 * | threo-Sphingosine (d18:1) (f7, Table 13b): 0.75 * | 3-O-Methylsphingosine (d18:1) (f14, Table 13b): 0.36 * | 5-O-Methylsphingosine (d18:1) (f14, Table 13b): 0.34 * | 16-Methylheptadecanoic acid (f14, Table 13b): 0.59 * | Arachidonic acid (C20:cis[5,8,11,14]4) (f14, Table 13b): 0.32 * | Ceramide (d18:1, C24:1) (f14, Table 13b): 0.6 * | Ceramide (d18:1,C24:0) (f14, Table 13b): 0.57 * | Cholesterol (f14, Table 13b): 0.36 * | Cholesterolester No 01 (f14, Table 13b): 0.79 * | Dodecanol (f14, Table 13b): 0.44 * | Elaidic acid (C18:trans[9]1) (f14, Table 13b): 0.5 * | Galactose, lipid fraction (f14, Table 13b): 0.48 * | Glycerol phosphate, lipid fraction (f14, Table 13b): 0.34 * | Heptadecanoic acid (C17:0) (f14, Table 13b): 0.61 * | Lignoceric acid (C24:0) (f14, Table 13b): 0.33 * | Lysophosphatidylcholine (C17:0) (f14, Table 13b): 0.72 * | Phosphate, lipid fraction (f14, Table 13b): 0.57 * | Phosphatidylcholine (C18:0, C20:3) (f14, Table 13b): 0.72 * | Phytosphingosine (f14, Table 13b): 0.55 * | Sphingomyelin (d18:1, C16:0) (f14, Table 13b): 0.79 * | Sphingomyelin (d18:1,C24:0) (f14, Table 13b): 0.62 * | Sphingomyelin (d18:2, C16:0) (f14, Table 13b): 0.58 * | Sphingomyelin (d18:2,C18:0) (f14, Table 13b): 0.67 * | Stearic acid (C18:0) (f14, Table 13b): 0.42 * | TAG No 07 (f14, Table 13b): 0.73 * | Tricosanoic acid (C23:0) (f14, Table 13b): 0.55 * | alpha-Tocopherol (f14, Table 13b): 0.4 * | beta-Sitosterol (f14, Table 13b): 0.3 * | erythro-Sphingosine (d18:1) (f14, Table 13b): 0.37 * | myo-Inositol, lipid fraction (f14, Table 13b): 0.48 * | myo-Inositol-2-phosphate, lipid fraction (f14, Table 13b): 0.31 * | threo-Sphingosine (d18:1) (f14, Table 13b): 0.44 * | 3-O-Methylsphingosine (d18:1) (f28, Table 13b): 0.11 * | 5-O-Methylsphingosine (d18:1) (f28, Table 13b): 0.13 * | 16-Methylheptadecanoic acid (f28, Table 13b): 0.28 * | Arachidonic acid (C20:cis[5,8,11,14]4) (f28, Table 13b): 0.16 * | Ceramide (d18:1, C24:1) (f28, Table 13b): 0.39 * | Ceramide (d18:1,C24:0) (f28, Table 13b): 0.36 * | Cholesterol (f28, Table 13b): 0.16 * | Cholesterolester No 01 (f28, Table 13b): 0.56 * | Dodecanol (f28, Table 13b): 0.27 * | Elaidic acid (C18:trans[9]1) (f28, Table 13b): 0.33 * | Galactose, lipid fraction (f28, Table 13b): 0.24 * | Glycerol phosphate, lipid fraction (f28, Table 13b): 0.19 * | Heptadecanoic acid (C17:0) (f28, Table 13b): 0.47 * | Lignoceric acid (C24:0) (f28, Table 13b): 0.15 * | Lysophosphatidylcholine (C17:0) (f28, Table 13b): 0.57 * | Phosphate, lipid fraction (f28, Table 13b): 0.36 * | Phosphatidylcholine (C18:0, C20:3) (f28, Table 13b): 0.59 * | Phytosphingosine (f28, Table 13b): 0.34 * | Sphingomyelin (d18:1, C16:0) (f28, Table 13b): 0.51 * | Sphingomyelin (d18:1,C24:0) (f28, Table 13b): 0.36 * | Sphingomyelin (d18:2, C16:0) (f28, Table 13b): 0.33 * | Sphingomyelin (d18:2,C18:0) (f28, Table 13b): 0.3 * | Stearic acid (C18:0) (f28, Table 13b): 0.28 * | TAG No 07 (f28, Table 13b): 0.4 * | Tricosanoic acid (C23:0) (f28, Table 13b): 0.23 * | alpha-Tocopherol (f28, Table 13b): 0.16 * | beta-Sitosterol (f28, Table 13b): 0.13 * | erythro-Sphingosine (d18:1) (f28, Table 13b): 0.13 * | myo-Inositol, lipid fraction (f28, Table 13b): 0.23 * | myo-Inositol-2-phosphate, lipid fraction (f28, Table 13b): 0.08 * | threo-Sphingosine (d18:1) (f28, Table 13b): 0.24 *
Structure (SMILES): C=CCN1C[C@H](C(=O)N(CCCN(C)C)C(=O)NCC)C[C@@H]2c3cccc4[nH]cc(c34)C[C@H]21 [Cabergoline]
